Data: US9040523B2, “Antifungal 5,6-dihydro-4H-pyrrolo[1,2-α][1,4]-benzodiazepines and 6H-pyrrolo[1,2-α][1,4]benzodiazepines substituted with benzene derivatives” (JANSSEN PHARMACEUTICA NV, priority 2010, dated 2015)

How the values were obtained:
Microsporum canis B68128 = assay: Antifungal activity in vitro (resazurin susceptibility screen), Inf. B; format: cell-based; conditions: Microsporum canis, B68128, Microsporum canis B68128; 27 °C, 9 days, resa time 24 hours; read-out: Inf. B pIC50 (converted)
Protocol: (§1) The standard susceptibility screen was performed in 96-well plates (U-bottom, Greiner Bio-One). […] These serial dilutions (10 n1) were then spotted onto test-plates that could be stored in the dark at 4° C. for a maximum period of 2 weeks. […] A standard inoculum of 200 μl containing 10^3 colony-forming unit (cfu) was then added to each well. A positive control (100% growth=fungal culture without antifungal) and a negative control (0% growth ═RPMI-MOPS medium) were included on each plate.

CYP3A4 = CYP3A4 (Homo sapiens, UniProt P08684); assay: Cytochrome P450 inhibition, Protocol A, cDNA expressed proteins, fluorogenic substrates; format: in vitro ADME; conditions: % inhibition at 10 μM, cDNA expressed protein; for hCYP3A4_BFC_Pct_Inh: substrate BFC; for hCYP3A4_BQ_Pct_Inh: substrate BQ; for hCYP3A4_DBF_Pct_Inh: substrate DBF
CYP3A4, sequence (P08684 whole entry): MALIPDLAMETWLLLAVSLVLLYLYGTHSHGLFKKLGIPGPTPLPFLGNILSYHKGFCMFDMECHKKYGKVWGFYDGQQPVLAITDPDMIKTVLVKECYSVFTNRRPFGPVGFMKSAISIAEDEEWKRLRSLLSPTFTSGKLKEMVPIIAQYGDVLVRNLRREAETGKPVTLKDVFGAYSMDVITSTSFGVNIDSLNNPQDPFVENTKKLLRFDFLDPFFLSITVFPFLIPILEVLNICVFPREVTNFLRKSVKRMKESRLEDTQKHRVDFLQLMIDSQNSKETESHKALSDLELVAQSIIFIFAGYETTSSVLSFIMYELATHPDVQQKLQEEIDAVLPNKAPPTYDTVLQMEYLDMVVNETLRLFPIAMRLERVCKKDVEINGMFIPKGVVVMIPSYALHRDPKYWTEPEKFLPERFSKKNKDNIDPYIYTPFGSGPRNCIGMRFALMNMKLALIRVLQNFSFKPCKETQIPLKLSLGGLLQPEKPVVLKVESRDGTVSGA
Protocol: (§2) All fluorogenic based assays were performed in Black Costar 96-well plates according to Crespi et al 1997 with minor modifications (Crespi C L, Miller V P & Penman B W (1997). Microtiter plate assays for inhibition of human, drug-metabolizing cytochromes P450. Anal. Biochem. Vol 248, 1898-1900). Assay conditions are outlined in Table 5a. For cytochrome P450 3A4, three different fluorogenic substrates were used. Each reaction mixture consisted of the appropriate concentration of enzyme, NADPH-generating system (“NADPH” means β-nicotinamide adenine dinucleotide phosphate, reduced), substrate in sodium/potassium buffer (pH 7.4). For each cytochrome P450 batch Michealis-Menten kinetics were determined using 11 concentrations.
(§3) Thereafter, further dilutions were made in acetonitrile. […] The compounds were serially diluted to give final concentrations ranging from 1 nM to 10 μM. The reaction mixtures, whereby 1 μL of buffer was replaced by compound solution, were pre-warmed for 5 min at 37° C. and the reaction was initiated by the addition of β-nicotinamide adenine dinucleotide phosphate (NADP+). Reactions were terminated by addition of stopping reagent and the fluorescence was measured using a Fluoroscan (Labsystems, Brussel, Belgium).
(§4) In Table 5a, the following abbreviations were used: 3-cyano-7-ethocycoumarin (CEC), 7-methoxy-4-trifluoromethylcoumarin (MFC), 3-[2-(N,N-diethyl-N-methylamino)ethyl]-7-methoxy-4-methylcoumarin (AMMC), 7-benzyloxy-trifluoromethyl coumarin (BFC), 7-benzyloxyquinoline (BQ) and dibenzyl fluorescein (DBF).

[1] = tested on: Trichophyton rubrum B68183; assay: Antifungal activity in vitro (resazurin susceptibility screen), Inf. C; format: cell-based; conditions: Trichophyton rubrum B68183; 27 °C, 7 days, resa time 24 hours; read-out: Inf. C pIC50 (converted)
Protocol: (§5) The standard susceptibility screen was performed in 96-well plates (U-bottom, Greiner Bio-One). […] These serial dilutions (10 n1) were then spotted onto test-plates that could be stored in the dark at 4° C. for a maximum period of 2 weeks. […] The different fungal species/isolates (Table 3a) were cryopreserved and 1/1000 diluted in medium just prior to use. A standard inoculum of 200 μl containing 10^3 colony-forming unit (cfu) was then added to each well. A positive control (100% growth=fungal culture without antifungal) and a negative control (0% growth ═RPMI-MOPS medium) were included on each plate. […] [table]

[2] = tested on: Trichophyton mentagrophytes B70554; assay: Antifungal activity in vitro (resazurin susceptibility screen), Inf. G; format: cell-based; conditions: Trichophyton mentagrophytes, B70554, Trichophyton mentagrophytes B70554; 27 °C, 7 days, resa time 24 hours; read-out: Inf. G pIC50 (converted)
Protocol: as §1

[3] = tested on: Cryptococcus neoformans B66663; assay: Antifungal activity in vitro (resazurin susceptibility screen), Inf. F; format: cell-based; conditions: Cryptococcus neoformans, B66663, Cryptococcus neoformans B66663; 37 °C, 24 hours, resa time 4 hours; read-out: Inf. F pIC50 (converted)
Protocol: as §5

[4] = Liver metabolic stability assay, hLM; format: in vitro ADME, human; conditions: human liver microsomes, 1 mg protein/ml, 5 μM test compound, 15 min, 37 °C
Protocol: Liver preparations (microsomal fractions) were obtained from BD Gentest (San Jose, Calif., US). Metabolic stability was assessed using the following assay conditions. […] The mixture was pre-incubated at 37° C. for 5 min and the enzymatic reaction was started by addition of 5 μM test compound. After 0 (control) and 15 minutes (min), the reactions were terminated by addition of […] (500 μl). The precipitated material was removed by centrifugation at 1200 g for 10 min. The supernatant was analysed by LC-MS/MS on a ThermoFinnigan LCQ Deca XP ion-trap mass spectrometer equipped with an atmospheric pressure chemical ionisation source. Calculation of %-compound remaining was as described by Kantharaj et al. 2003 ((Kantharaj E., Tuytelaars A, Proost P E A, Ongel Z, van […] (2003). Simultaneous measurement of drug metabolic stability and identification of metabolites using ion-trap mass spectrometry.

[5] = tested on: Aspergillus fumigatus B42928; assay: Antifungal activity in vitro (resazurin susceptibility screen), Inf. E; format: cell-based; conditions: Aspergillus fumigatus B42928; 27 °C, 48 hours, resa time 17 hours; read-out: Inf. E pIC50 (converted)
Protocol: as §5

CYP1A2 = biological target: T1, CYP1A2 (Homo sapiens, UniProt P05177); assay: Cytochrome P450 inhibition, Protocol A, cDNA expressed proteins, fluorogenic substrate; format: in vitro ADME; conditions: % inhibition at 10 μM; substrate CEC; cDNA expressed protein
T1 sequence (P05177 1-516): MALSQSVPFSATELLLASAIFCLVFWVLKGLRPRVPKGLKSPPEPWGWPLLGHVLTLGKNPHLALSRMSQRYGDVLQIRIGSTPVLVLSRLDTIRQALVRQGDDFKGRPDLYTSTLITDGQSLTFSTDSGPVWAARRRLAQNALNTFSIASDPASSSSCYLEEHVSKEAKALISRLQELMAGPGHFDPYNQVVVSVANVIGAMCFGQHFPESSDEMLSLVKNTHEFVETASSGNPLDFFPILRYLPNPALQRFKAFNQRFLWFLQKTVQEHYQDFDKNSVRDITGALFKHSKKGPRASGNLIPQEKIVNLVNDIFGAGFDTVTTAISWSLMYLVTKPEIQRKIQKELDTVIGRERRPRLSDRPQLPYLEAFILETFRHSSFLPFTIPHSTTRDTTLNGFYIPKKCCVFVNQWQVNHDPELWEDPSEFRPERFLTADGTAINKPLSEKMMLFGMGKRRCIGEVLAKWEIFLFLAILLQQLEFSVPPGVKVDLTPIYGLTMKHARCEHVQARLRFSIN
Protocol: as §2, §3, §4

CYP2C9 = CYP2C9 (Homo sapiens, UniProt P11712); assay: as above; format: in vitro ADME; conditions: % inhibition at 10 μM; substrate MFC; cDNA expressed protein
CYP2C9, sequence (P11712 whole entry): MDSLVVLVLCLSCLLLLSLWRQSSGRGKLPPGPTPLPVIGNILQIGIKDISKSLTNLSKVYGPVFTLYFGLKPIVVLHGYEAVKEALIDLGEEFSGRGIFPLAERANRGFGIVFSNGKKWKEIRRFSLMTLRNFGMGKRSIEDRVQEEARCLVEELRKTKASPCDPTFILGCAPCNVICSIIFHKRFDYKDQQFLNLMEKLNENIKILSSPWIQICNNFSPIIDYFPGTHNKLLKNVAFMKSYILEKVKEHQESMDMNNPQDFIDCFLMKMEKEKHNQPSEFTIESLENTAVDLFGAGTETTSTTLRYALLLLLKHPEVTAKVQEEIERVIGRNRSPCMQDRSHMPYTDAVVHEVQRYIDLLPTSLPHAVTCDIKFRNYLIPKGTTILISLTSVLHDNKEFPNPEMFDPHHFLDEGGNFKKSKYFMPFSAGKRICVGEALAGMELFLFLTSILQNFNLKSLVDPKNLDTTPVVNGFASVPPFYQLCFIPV
Protocol: as §2, §3, §4

CYP2D6 = CYP2D6 (Homo sapiens, UniProt P10635); assay: as above; format: in vitro ADME; conditions: % inhibition at 10 μM; substrate AMMC; cDNA expressed protein
CYP2D6, sequence (P10635 whole entry): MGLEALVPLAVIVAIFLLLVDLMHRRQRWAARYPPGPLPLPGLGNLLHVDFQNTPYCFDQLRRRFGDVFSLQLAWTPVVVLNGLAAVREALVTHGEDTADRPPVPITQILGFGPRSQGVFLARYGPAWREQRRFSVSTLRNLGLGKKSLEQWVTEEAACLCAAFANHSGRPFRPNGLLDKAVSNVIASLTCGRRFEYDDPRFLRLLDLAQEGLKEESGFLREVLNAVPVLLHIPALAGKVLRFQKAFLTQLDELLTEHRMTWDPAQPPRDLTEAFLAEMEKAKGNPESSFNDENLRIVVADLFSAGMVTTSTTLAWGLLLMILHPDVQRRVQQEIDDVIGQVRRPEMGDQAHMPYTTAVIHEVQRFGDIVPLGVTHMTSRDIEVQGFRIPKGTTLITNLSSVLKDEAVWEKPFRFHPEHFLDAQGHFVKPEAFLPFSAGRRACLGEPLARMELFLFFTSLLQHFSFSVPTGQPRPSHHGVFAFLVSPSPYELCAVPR
Protocol: as §2, §3, §4

[6] = tested on: Candida parapsilosis B66126; assay: Antifungal activity in vitro (resazurin susceptibility screen), Inf. D; format: cell-based; conditions: Lodderomyces parapsilosis; Candida parapsilosis B66126; 37 °C, 24 hours, resa time 4 hours; read-out: Inf. D pIC50 (converted)
Protocol: as §1

[7] = tested on: Sporothrix schenkii B62482; assay: Antifungal activity in vitro (resazurin susceptibility screen), Inf. A; format: cell-based; conditions: Sporothrix, B62482, Sporothrix schenkii B62482; 27 °C, 4 days, resa time 24 hours; highest in-test concentration 64 μM; read-out: Inf. A pIC50 (converted)
Protocol: as §5

CC(=O)c1ccc(C2=NCc3c(Cl)ccc(Cl)c3-n3cccc32)cc1 [Compound 25, 1-[4-(7,10-dichloro-6H-pyrrolo[1,2-a][1,4]benzodiazepin-4-yl)phenyl]-ethanone]
IC50 (Microsporum canis B68128): 3.16 µM
hCYP3A4_BFC_Pct_Inh (CYP3A4): 21%
hCYP3A4_BQ_Pct_Inh (CYP3A4): 29%
hCYP3A4_DBF_Pct_Inh (CYP3A4): 21%
IC50 [1]: 5.01 µM
IC50 [2]: 10 µM
IC50 [3]: > 63.1 µM
%-compound metabolised_Met_hLM [4]: 80%
IC50 [5]: > 63.1 µM
hCYP1A2_CEC_Pct_Inh (CYP1A2): 21%
hCYP2C9_MFC_Pct_Inh (CYP2C9): 45%
hCYP2D6_AMMC_Pct_Inh (CYP2D6): 11%
IC50 [6]: > 63.1 µM
IC50 [7]: > 63.1 µM

CS(=O)(=O)c1ccc(C2=NCc3c(F)cccc3-n3cccc32)cc1 [Compound 29, 7-fluoro-4-[4-(methylsulfonyl)phenyl]-6H-pyrrolo[1,2-a][1,4]benzodiazepine]
IC50 (Microsporum canis B68128): 10 µM
IC50 [1]: 2.51 µM
IC50 [2]: 6.31 µM
IC50 [3]: 31.6 µM
melting point: 92 to 95 °C
IC50 [5]: 50.1 µM
IC50 [6]: > 63.1 µM
IC50 [7]: > 63.1 µM

CS(=O)(=O)c1cccc(C2=NCc3c(Cl)cc(Cl)cc3-n3cccc32)c1 [Compound 31, 7,9-dichloro-4-[3-(methylsulfonyl)phenyl]-6H-pyrrolo[1,2-a][1,4]benzodiazepine]
IC50 (Microsporum canis B68128): > 63.1 µM
IC50 [1]: > 63.1 µM
IC50 [2]: > 63.1 µM
IC50 [3]: > 63.1 µM
melting point: 221.2 to 221.5 °C
IC50 [5]: > 63.1 µM
IC50 [6]: > 63.1 µM
IC50 [7]: > 63.1 µM

CC(=O)c1ccc(C2=NCc3ccc(Cl)cc3-n3cccc32)cc1 [drawing 86]
hCYP3A4_BFC_Pct_Inh (CYP3A4): 7%
hCYP3A4_BQ_Pct_Inh (CYP3A4): 50%
hCYP3A4_DBF_Pct_Inh (CYP3A4): 40%
hCYP1A2_CEC_Pct_Inh (CYP1A2): 21%
hCYP2C9_MFC_Pct_Inh (CYP2C9): 69%
hCYP2D6_AMMC_Pct_Inh (CYP2D6): 20%

CC(=O)c1ccc(C2=NCc3c(Cl)cccc3-n3cccc32)cc1 [drawing 88]
hCYP3A4_BFC_Pct_Inh (CYP3A4): 2%
hCYP3A4_BQ_Pct_Inh (CYP3A4): 33%
hCYP3A4_DBF_Pct_Inh (CYP3A4): 21%
hCYP1A2_CEC_Pct_Inh (CYP1A2): 33%
hCYP2C9_MFC_Pct_Inh (CYP2C9): 82%
hCYP2D6_AMMC_Pct_Inh (CYP2D6): 18%

CCc1ccc(C2=NCc3c(Cl)cccc3-n3cccc32)cc1 [drawing 89]
hCYP3A4_BFC_Pct_Inh (CYP3A4): 45%
hCYP3A4_BQ_Pct_Inh (CYP3A4): 62%
hCYP3A4_DBF_Pct_Inh (CYP3A4): 64%
hCYP1A2_CEC_Pct_Inh (CYP1A2): 60%
hCYP2C9_MFC_Pct_Inh (CYP2C9): 41%
hCYP2D6_AMMC_Pct_Inh (CYP2D6): 52%

CS(=O)(=O)c1ccc(C2=NCc3c(Cl)cccc3-n3cccc32)cc1 [drawing 90]
hCYP3A4_BFC_Pct_Inh (CYP3A4): 5%
hCYP3A4_BQ_Pct_Inh (CYP3A4): 17%
hCYP3A4_DBF_Pct_Inh (CYP3A4): 1%
hCYP1A2_CEC_Pct_Inh (CYP1A2): 5%
hCYP2C9_MFC_Pct_Inh (CYP2C9): 48%
hCYP2D6_AMMC_Pct_Inh (CYP2D6): 5%
